# Tests used:
# [1] = system: catalytic subunit of PI3K (α-subunit compared to β-subunit); details: cited from earlier work
# [2] = Pressure sensitivity assay (tabletting, XRPD); assay type: physicochemical; details: pressure 200, 300 and 500 kg/cm^2, 3 min
# [3] = Grinding sensitivity assay (XRPD); assay type: physicochemical; details: manual grinding in a mortar, 1 min
# [4] = Pharmacokinetic assay in rats, single gavage; assay type: in vivo; details: rat, plasma, po, male SD rats, 10 mg/kg
# Experimental: Medicament preparation: the control compound, crystal form M of Compound 1 and amorphous form of Compound 2 obtained in Example 1 were weighed and prepared into a 10 mg/mL of solution to be tested in a mixture of 10% of DMSO, 10% of Solutol and 80% of saline; crystal form C of Compound 1 was added into a mixture of 5% of solutol and 95% of 0.5% CMCNa to prepare a 10 mg/mL of solution to be tested.
# Assay method: 15 male SD rats with weights: 150 g to 300 g were randomly divided into 5 groups of 3 rats each, and […] of the Example compound was administered by single gavage. The blood was collected through the orbital venous plexus at the designated time points (5 min, 15 min, 30 min, 1 h, 2 h, 4 h, 7 h and 24 h) respectively, and the plasma was separated and stored in a refrigerator at −80° C. for spare use. After precipitation of proteins from the above plasma samples by acetonitrile, the supernatant was extracted and mixed with water at 1:1, and 10 μL of which was taken for LC-MS/MS detection.
# DVS assay = assay type: physicochemical; details: 80% RH, 25° C.
# Experimental: A Surface Measurement Systems Dynamic Vapor Sorption Analyzer (model of DVS Resolution) was used with an N2 flow rate: 200 sccm, detection temperature: 25° C., equilibrium time range: 5 min to 360 min, RH gradient: 10% (50% RH to 90% RH, 90% RH to 0% RH to 90% RH), and 5% (90% RH to 95% RH, 95% RH to 90% RH) to obtain dynamic vapor sorption analysis pattern.
# [5] = Stress testing (influencing factors), total impurity content; assay type: physicochemical
# [6] = Stability test of crystal form C (influencing factor, accelerated, long-term); assay type: physicochemical
# Description: The conditions and methods for the stability test of crystal form C of Compound 1 are mainly based on the requirements of “9001 Guidelines for Stability Test of APIs and Pharmaceutical Preparations” of the fourth part general rules of the 2020 edition of the Chinese Pharmacopoeia, as shown in Table 4. [table]
# PI3Kγ = PI3Kγ (Homo sapiens, UniProt P48736); assay: PI3Kγ kinase assay (ADP-Glo, luminescence); assay type: biochemical; details: final ATP concentration 10 μM; read-out: IC50 of Compound PI3K γ
# Experimental: (§1) PI3Kα, PI3Kβ, PI3Kγ kinases were enzymatically reacted with their substrates ATP and PIP2:3PS, and the amount of the reaction products were determined to reflect the enzymatic activities of PI3Kα, PI3Kβ, PI3Kγ using ADP-Glo reagent and luminescence method (final ATP concentration of 10 μM). The inhibitory activities of Compound 1 of the present invention on PI3Kα, PI3Kβ and PI3Kγ kinases were tested using the above method.
# (§2) Reagents: basic kinase buffer (pH 7.5); PI3Kα, PI3Kβ, PI3Kγ enzyme solutions; solution of PIP2:3PS and ATP; and ADP-Glo kit (containing 10 mM of MgCl2).
# (§3) Among them, the buffer components are: 50 mM of Hepes (pH 7.2 to pH 7.5), 3 mM of MgCl2, 1 mM of EGTA, 0.03% of CHAPS, 100 mM of NaCl, and 2 mM of DTT;
# (§4) Preparation of compound: Compound 1 of the present application was completely dissolved in DMSO and diluted to a specific concentration so that the final concentration of the compound in the incubation system was 1000 nM, 333 nM, 111 nM, 37 nM, 12.4 nM, 4.1 nM, 1.4 nM, 0.46 nM, 0.15 nM and 0.05 nM (PI3Kα); 30,000 nM, 10,000 nM, 3333 nM, 1111 nM, 370 nM, 123 nM, 41 nM, 13.7 nM, 4.6 nM and 1.5 nM (PI3Kβ, PI3Kγ). […]
# PI3Kβ = PI3Kβ (Homo sapiens, UniProt P42338); assay: PI3Kβ kinase assay (ADP-Glo, luminescence); assay type: biochemical; details: final ATP concentration 10 μM; read-out: IC50 of Compound PI3K β
# Experimental: as §1, §2, §3, §4
# PI3Kα = PI3Kα (Homo sapiens, UniProt P42336); assay: PI3Kα kinase assay (ADP-Glo, luminescence); assay type: biochemical; details: final ATP concentration 10 μM; read-out: IC50 of Compound PI3K α
# Experimental: as §1, §2, §3, §4
# MCF-7 cells = assay: Cell proliferation assay (CellTiter Glo), MCF-7; assay type: cell-based; details: Homo sapiens, MCF7; 120 h incubation; read-out: IC50 of compounds on MCF-7 cells
# Experimental: Method: CellTiter Glo assay method was used to observe the growth inhibitory effect of Compound 1 of the present application on human tumor cells MCF-7 and HGC-27 cultured in vitro.
# Assay method: MCF-7 cells were suspended in DMEM medium to form a cell suspension, and the cell concentration was adjusted to 25,000 cells/mL. HGC-27 cells were suspended in RPMI-1640 medium to form a cell suspension, and the cell concentration was adjusted to 5,000 cells/mL. 100 μL of cell suspension was added to a 96-well plate and placed in a CO2 incubator overnight. Compound 1 was completely dissolved in DMSO and 3-fold gradient dilution was performed to obtain a total of 10 concentrations. The 10 concentrations of the compounds to be tested or the DMSO negative control were transferred to the wells containing 100 μL of medium to give final concentrations of the compounds of 30,000 nM, 10,000 nM, 3,333 nM, 1,111 nM, 370 nM, 123 nM, 41 nM, 13.7 nM, and 4.6 nM, respectively. Incubation was performed at 37° C. under 5% CO2 for 96 h for HGC-27 cells and 120 h for MCF-7 cells. Then 100 μL of CellTiter-Glo reagent was added to the above 96-well plate and placed at room temperature for 10 min to stabilize the luminescence signal. The RLU (relative luminescence unit) value was recorded using a VICTOR™ X5 instrument, and then the IC50 value was calculated. […]
# [7] = High temperature of 40° C., Day 5
# [8] = High temperature of 40° C., Day 30
# [9] = High temperature of 60° C., Day 5
# [10] = High temperature of 60° C., Day 30
# PI3Kα, sequence (P42336 whole entry): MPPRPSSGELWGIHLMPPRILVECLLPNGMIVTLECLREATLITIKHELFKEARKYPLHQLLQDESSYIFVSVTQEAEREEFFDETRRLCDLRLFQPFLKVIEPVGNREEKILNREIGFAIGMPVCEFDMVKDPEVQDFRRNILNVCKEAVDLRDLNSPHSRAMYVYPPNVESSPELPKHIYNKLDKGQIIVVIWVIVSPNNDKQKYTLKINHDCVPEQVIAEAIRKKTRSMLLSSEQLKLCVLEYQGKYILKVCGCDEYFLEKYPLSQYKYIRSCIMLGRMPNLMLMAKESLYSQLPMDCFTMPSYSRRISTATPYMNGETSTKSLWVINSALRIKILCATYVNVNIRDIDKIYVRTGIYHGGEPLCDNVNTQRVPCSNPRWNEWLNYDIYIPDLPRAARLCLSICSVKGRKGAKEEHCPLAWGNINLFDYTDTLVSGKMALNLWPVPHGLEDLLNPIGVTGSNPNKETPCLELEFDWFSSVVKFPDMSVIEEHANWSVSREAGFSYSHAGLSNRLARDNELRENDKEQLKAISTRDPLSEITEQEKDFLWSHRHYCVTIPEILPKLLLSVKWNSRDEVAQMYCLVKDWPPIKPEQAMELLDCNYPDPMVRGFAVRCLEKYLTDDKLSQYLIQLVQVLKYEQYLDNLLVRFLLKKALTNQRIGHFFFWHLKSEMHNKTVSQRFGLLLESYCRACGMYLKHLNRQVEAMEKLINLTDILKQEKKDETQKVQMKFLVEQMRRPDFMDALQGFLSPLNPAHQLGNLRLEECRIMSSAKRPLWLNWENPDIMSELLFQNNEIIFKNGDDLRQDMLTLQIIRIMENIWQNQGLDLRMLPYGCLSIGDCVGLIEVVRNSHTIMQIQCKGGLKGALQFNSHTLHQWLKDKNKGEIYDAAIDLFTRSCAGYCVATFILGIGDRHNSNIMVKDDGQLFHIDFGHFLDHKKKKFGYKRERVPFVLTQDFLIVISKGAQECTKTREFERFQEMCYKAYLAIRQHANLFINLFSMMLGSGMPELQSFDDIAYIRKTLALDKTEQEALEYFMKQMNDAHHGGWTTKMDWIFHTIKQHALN
# PI3Kα, sequence (P27986 whole entry partner): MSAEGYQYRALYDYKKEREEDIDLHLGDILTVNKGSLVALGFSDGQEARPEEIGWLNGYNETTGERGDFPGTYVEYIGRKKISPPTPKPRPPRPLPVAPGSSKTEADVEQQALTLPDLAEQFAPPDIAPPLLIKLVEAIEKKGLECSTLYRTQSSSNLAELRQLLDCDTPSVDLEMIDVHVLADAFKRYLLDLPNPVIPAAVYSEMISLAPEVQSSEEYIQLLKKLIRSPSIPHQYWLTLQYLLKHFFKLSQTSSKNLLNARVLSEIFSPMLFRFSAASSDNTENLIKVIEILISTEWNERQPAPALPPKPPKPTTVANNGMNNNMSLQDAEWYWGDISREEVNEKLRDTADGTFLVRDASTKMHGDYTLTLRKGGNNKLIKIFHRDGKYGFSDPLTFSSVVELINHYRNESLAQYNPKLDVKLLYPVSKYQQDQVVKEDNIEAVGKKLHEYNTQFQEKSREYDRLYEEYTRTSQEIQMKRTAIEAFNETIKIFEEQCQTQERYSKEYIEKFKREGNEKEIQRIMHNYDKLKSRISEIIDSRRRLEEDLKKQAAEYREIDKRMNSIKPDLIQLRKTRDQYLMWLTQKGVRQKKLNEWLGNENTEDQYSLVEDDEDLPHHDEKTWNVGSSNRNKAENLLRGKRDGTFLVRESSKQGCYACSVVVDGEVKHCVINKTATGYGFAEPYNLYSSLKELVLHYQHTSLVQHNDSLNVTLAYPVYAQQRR
# PI3Kγ, sequence (P48736 whole entry): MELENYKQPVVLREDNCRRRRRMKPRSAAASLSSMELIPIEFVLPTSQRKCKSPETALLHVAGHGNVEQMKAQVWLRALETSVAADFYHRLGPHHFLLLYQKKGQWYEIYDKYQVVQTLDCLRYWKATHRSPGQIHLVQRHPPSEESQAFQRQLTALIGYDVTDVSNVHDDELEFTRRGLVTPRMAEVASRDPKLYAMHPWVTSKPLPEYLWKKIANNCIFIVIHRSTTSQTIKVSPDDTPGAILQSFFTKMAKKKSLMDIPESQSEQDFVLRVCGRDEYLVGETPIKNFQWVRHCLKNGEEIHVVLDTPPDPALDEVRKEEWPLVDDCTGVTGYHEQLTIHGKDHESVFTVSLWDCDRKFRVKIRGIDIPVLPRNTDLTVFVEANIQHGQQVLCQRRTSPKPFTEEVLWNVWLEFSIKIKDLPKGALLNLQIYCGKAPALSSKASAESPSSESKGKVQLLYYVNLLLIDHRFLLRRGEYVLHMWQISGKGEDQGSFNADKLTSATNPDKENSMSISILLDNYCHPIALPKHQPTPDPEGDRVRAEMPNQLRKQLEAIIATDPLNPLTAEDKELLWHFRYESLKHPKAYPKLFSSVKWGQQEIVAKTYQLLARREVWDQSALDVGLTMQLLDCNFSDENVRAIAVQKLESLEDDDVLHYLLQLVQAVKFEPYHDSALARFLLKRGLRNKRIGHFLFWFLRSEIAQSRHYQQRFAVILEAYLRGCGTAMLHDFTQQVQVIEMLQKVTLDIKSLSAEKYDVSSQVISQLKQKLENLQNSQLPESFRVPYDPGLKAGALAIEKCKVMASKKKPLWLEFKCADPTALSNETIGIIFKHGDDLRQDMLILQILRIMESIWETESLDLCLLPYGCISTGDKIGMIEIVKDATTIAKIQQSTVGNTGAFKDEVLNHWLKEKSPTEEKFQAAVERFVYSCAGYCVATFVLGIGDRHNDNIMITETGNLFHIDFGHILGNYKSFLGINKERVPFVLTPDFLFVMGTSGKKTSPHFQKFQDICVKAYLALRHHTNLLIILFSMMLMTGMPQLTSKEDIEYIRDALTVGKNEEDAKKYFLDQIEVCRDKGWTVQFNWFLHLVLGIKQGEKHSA
# PI3Kβ, sequence (P42338 whole entry): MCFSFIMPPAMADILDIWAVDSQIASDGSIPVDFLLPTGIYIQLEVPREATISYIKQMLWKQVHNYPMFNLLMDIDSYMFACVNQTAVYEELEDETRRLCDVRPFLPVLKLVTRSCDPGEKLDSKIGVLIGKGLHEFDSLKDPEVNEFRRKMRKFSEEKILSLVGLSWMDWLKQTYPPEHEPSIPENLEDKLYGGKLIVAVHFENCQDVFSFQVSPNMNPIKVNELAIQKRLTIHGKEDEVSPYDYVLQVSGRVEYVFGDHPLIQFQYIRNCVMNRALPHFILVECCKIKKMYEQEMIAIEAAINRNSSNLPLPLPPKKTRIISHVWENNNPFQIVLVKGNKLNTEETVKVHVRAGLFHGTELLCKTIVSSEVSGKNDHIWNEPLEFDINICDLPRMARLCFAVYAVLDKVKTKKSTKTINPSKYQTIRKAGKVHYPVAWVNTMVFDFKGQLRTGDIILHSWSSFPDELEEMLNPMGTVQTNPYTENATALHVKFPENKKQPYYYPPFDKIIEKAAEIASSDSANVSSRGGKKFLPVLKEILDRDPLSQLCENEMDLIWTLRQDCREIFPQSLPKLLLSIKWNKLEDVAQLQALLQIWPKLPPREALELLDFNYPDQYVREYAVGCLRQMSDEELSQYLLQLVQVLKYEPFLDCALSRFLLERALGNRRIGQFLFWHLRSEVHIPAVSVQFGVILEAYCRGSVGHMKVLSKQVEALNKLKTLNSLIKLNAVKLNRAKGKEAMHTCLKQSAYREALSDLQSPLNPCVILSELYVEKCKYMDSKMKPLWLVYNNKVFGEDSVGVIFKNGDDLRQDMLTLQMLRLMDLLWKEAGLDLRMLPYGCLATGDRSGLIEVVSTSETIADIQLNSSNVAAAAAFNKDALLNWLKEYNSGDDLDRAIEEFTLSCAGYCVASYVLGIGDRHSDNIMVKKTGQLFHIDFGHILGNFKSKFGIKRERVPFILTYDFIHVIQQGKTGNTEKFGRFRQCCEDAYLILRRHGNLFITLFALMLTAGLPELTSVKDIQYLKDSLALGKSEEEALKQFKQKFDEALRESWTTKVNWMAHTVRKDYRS
# PI3Kβ, sequence (P27986 whole entry partner): as the sequence (P27986 whole entry partner) above
Result: crystal form after tabletting [2],mass gain (DVS) (DVS assay) [%],Total impurity content of the related material ([5]; Day 0) [%],"Total impurity content of the related material ([5]; High humidity of 75%, Day 5) [%]","Total impurity content of the related material ([5]; High humidity of 75%, Day 30) [%]","Total impurity content of the related material ([5]; High humidity of 92.5%, Day 5) [%]","Total impurity content of the related material ([5]; High humidity of 92.5%, Day 30) [%]","Total impurity content of the related material [5, 7] [%]","Total impurity content of the related material [5, 8] [%]","Total impurity content of the related material [5, 9] [%]","Total impurity content of the related material [5, 10] [%]",Structure (SMILES),XRPD pattern after grinding [3],further results
,,,,,,,,,,,Cc1nc(-c2cn3c(n2)-c2ccc(-c4cnn(C(C)(C)C(N)=O)c4)cc2OCC3)n(C(C)C)n1 [Taselisib],,selectivity for the α-subunit compared to the β-subunit [1]: 31 fold
Form C,0.7,0.07,0.07,0.07,0.07,0.07,0.07,0.10,0.08,0.10,"CC(C)[C@H]1C(=O)N(C2CC2)C(=O)N1c1cn2c(n1)-c1ccc(N3CCC[C@H]3C(N)=O)cc1OCC2 [Crystal Form C, (S)-1-(2-((S)-3-cyclopropyl-5-isopropyl-2,4-dioxoimidazolidin-1-yl)-5,6-dihydrobenzo[f]imidazo[1,2-d][1,4]oxazepin-9-yl)pyrrolidine-2-carboxamide]",remained consistent with the original patterns,"AUC [4]: 36600 ng·h/mL; Cmax [4]: 3700 ng/mL; change of testing indexes compared with day 0, long-term test ([6]; 25° C. ± 2° C., RH60% ± 5%, 6 months): no significant change; change of testing indexes compared with day 0, accelerated test ([6]; 40° C. ± 2° C., RH75%, 6 months): no significant change; change in characteristics, content, crystal form and isomer compared with day 0 ([6]; uncovered, high temperature (40° C., 60° C.) or high humidity (75%, 92.5%), 30 days): no significant change"
Form B-1,1.9,0.24,0.25,0.29,0.23,0.24,0.26,0.34,0.38,0.43,"CC(C)[C@H]1C(=O)N(C2CC2)C(=O)N1c1cn2c(n1)-c1ccc(N3CCC[C@H]3C(N)=O)cc1OCC2 [Crystal Form B-1, (S)-1-(2-((S)-3-cyclopropyl-5-isopropyl-2,4-dioxoimidazolidin-1-yl)-5,6-dihydrobenzo[f]imidazo[1,2-d][1,4]oxazepin-9-yl)pyrrolidine-2-carboxamide]",remained consistent with the original patterns,
,,0.12,0.39,0.61,0.42,0.61,0.55,0.53,0.70,0.64,"CC(C)[C@H]1C(=O)N(C2CC2)C(=O)N1c1cn2c(n1)-c1ccc(N3CCC[C@H]3C(N)=O)cc1OCC2 [Crystal Form M, (S)-1-(2-((S)-3-cyclopropyl-5-isopropyl-2,4-dioxoimidazolidin-1-yl)-5,6-dihydrobenzo[f]imidazo[1,2-d][1,4]oxazepin-9-yl)pyrrolidine-2-carboxamide]",,
,,,,,,,,,,,"CC(C)[C@H]1C(=O)N(C2CC2)C(=O)N1c1cn2c(n1)-c1ccc(N3CCC[C@H]3C(N)=O)cc1OCC2 [Compound 1, (S)-1-(2-((S)-3-cyclopropyl-5-isopropyl-2,4-dioxoimidazolidin-1-yl)-5,6-dihydrobenzo[f]imidazo[1,2-d][1,4]oxazepin-9-yl)pyrrolidine-2-carboxamide]",,IC50 (PI3Kγ): > 600 nM; IC50 (PI3Kβ): > 600 nM; IC50 (PI3Kα): ≤ 5 nM; IC50 (MCF-7 cells): 47 nM

# Reference: US20240246994A1, “Polymorph Of Imidazolidinone Compound, Preparation Method Therefor And Use Thereof” (Betta Pharmaceuticals Co., Ltd., priority 2021, published 2024)
